Source: ChEMBL document CHEMBL1201862, “PubChem BioAssay data set” (2004)
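Briefly, cells in 96-well plates were exposed to five compound concentrations for 48 h, and endpoints were estimated by linear interpolation. Here, GI50 denotes the concentration required for 50% inhibition of growth.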 Activity calls are given as the source filed them. No stated cut-off is given here; in the data, active = GI50 up to about 1.1 µM and inactive = higher.

Experiments:
Assay in all cases: NCI anticancer screen, dose series, 48 h
KM12 = system: KM12
CAKI-1 = system: CAKI-1
MOLT-4 = system: MOLT-4
HOP-92 = system: HOP-92
RPMI-8226 = system: RPMI-8226
A549 = system: A549
Malme-3M = system: Malme-3M
SNB-19 = system: SNB-19
OVCAR-5 = system: OVCAR-5
LOX IMVI = system: LOX IMVI
HT-29 = system: HT-29
SK-MEL-2 = system: SK-MEL-2
NCI-H23 = system: NCI-H23
UACC-257 = system: UACC-257
SF-268 = system: SF-268
A498 = system: A498
SW-620 = system: SW-620
SF-295 = system: SF-295
OVCAR-8 = system: OVCAR-8
EKVX = system: EKVX

Measured: GI50

COc1ccc(C2N(NC(=O)c3ccncc3)C(=O)CS2(=O)=O)cc1F (stereo unspecified)
inactive: KM12 > 100 µM | CAKI-1 > 100 µM | MOLT-4 14 µM | HOP-92 > 100 µM | RPMI-8226 > 100 µM | A549 > 100 µM | Malme-3M > 100 µM | SNB-19 > 100 µM | OVCAR-5 > 100 µM | LOX IMVI 60.4 µM | HT-29 > 100 µM | SK-MEL-2 > 100 µM | NCI-H23 > 100 µM | UACC-257 > 100 µM | SF-268 > 100 µM | A498 > 100 µM | SW-620 > 100 µM | SF-295 > 100 µM

COC1OC(CS(=O)(=O)O)C(O)C(O)C1O (stereo unspecified)
inactive: KM12 > 100 µM | CAKI-1 > 100 µM | MOLT-4 > 100 µM | HOP-92 > 100 µM | RPMI-8226 > 100 µM | Malme-3M > 100 µM | SNB-19 > 100 µM | OVCAR-5 > 100 µM | LOX IMVI > 100 µM | HT-29 > 100 µM | SK-MEL-2 > 100 µM | NCI-H23 > 100 µM | OVCAR-8 > 100 µM | UACC-257 > 100 µM | A498 > 100 µM | SW-620 > 100 µM | SF-295 > 100 µM

NC1CCCCC1
inactive: KM12 211 µM | MOLT-4 195 µM | HOP-92 258 µM | RPMI-8226 369 µM | EKVX 489 µM | A549 194 µM | Malme-3M > 562 µM | SNB-19 187 µM | OVCAR-5 386 µM | LOX IMVI 506 µM | HT-29 199 µM | SK-MEL-2 169 µM | NCI-H23 > 562 µM | OVCAR-8 397 µM | UACC-257 > 562 µM | SF-268 508 µM | A498 > 562 µM | SW-620 419 µM

CC(C)OP(=O)(OC(C)C)c1nn(-c2ccc([N+](=O)[O-])cc2)c(=N)s1
inactive: KM12 > 100 µM | CAKI-1 > 100 µM | MOLT-4 75.9 µM | HOP-92 > 100 µM | RPMI-8226 > 100 µM | EKVX > 100 µM | A549 > 100 µM | Malme-3M > 100 µM | SNB-19 > 100 µM | OVCAR-5 > 100 µM | HT-29 > 100 µM | NCI-H23 > 100 µM | OVCAR-8 > 100 µM | UACC-257 38.1 µM | SF-268 > 100 µM | A498 > 100 µM | SW-620 > 100 µM | SF-295 > 100 µM

O=C(NC1C/C(=N/O)c2c(Br)sc(Br)c21)C(F)(F)F (stereo unspecified)
inactive: KM12 45 µM | CAKI-1 13.8 µM | MOLT-4 26.3 µM | HOP-92 3.65 µM | EKVX 27 µM | A549 20 µM | Malme-3M 45.9 µM | SNB-19 41.7 µM | OVCAR-5 > 100 µM | LOX IMVI 25.5 µM | HT-29 26.9 µM | SK-MEL-2 11.4 µM | NCI-H23 16 µM | OVCAR-8 20.7 µM | UACC-257 22.9 µM | SF-268 23.6 µM | A498 24.5 µM | SW-620 30.2 µM | SF-295 31 µM

Cc1[nH]c2ncn(/N=C/c3ccccc3O)c(=N)c2c1Cc1ccccc1
inactive: KM12 30.2 µM | CAKI-1 46.1 µM | MOLT-4 30.8 µM | HOP-92 > 100 µM | RPMI-8226 37.8 µM | EKVX 25 µM | A549 39.4 µM | SNB-19 > 100 µM | OVCAR-5 > 100 µM | LOX IMVI 59.2 µM | HT-29 47.6 µM | SK-MEL-2 23.3 µM | NCI-H23 50.6 µM | OVCAR-8 > 100 µM | UACC-257 34.4 µM | SF-268 75.2 µM | A498 36.5 µM | SW-620 32.2 µM | SF-295 58.6 µM

Cc1ccc(NC(=S)NNC(=O)c2cc(-c3ccccc3)nc3ccccc23)cc1C
inactive: KM12 27.4 µM | CAKI-1 59.7 µM | MOLT-4 20.8 µM | HOP-92 18.6 µM | RPMI-8226 24.3 µM | A549 20.5 µM | Malme-3M 20 µM | SNB-19 32 µM | OVCAR-5 26.8 µM | HT-29 23.7 µM | SK-MEL-2 18.6 µM | NCI-H23 19.3 µM | OVCAR-8 20.8 µM | UACC-257 26.4 µM | SF-268 29.4 µM | A498 16.6 µM | SW-620 31.5 µM | SF-295 12.9 µM

Cc1ccc(CCC(=O)C(=O)O)s1
inactive: KM12 > 100 µM | CAKI-1 30.9 µM | MOLT-4 > 100 µM | HOP-92 > 100 µM | RPMI-8226 > 100 µM | EKVX > 100 µM | A549 > 100 µM | Malme-3M > 100 µM | SNB-19 > 100 µM | OVCAR-5 > 100 µM | HT-29 > 100 µM | SK-MEL-2 > 100 µM | NCI-H23 > 100 µM | OVCAR-8 > 100 µM | UACC-257 > 100 µM | SF-268 > 100 µM | A498 89.5 µM | SW-620 > 100 µM | SF-295 > 100 µM
